Measurements taken from patent publication US11566007B2, “Ras inhibitors” (Revolution Medicines, Inc., priority 2019, dated 2023).
Where “and” joins values, the source holds several entries; their conditions need not be identical. Equal entries are not always repeated. Where two headings read alike, the source gives them in different places.

Legend:
[1] = system: NCI-H358 cells (K-Ras G12C); assay: Potency assay: pERK in NCI-H358 cells; format: cell-based, human; details: H358 KRAS G12C, read-out: pERK EC50
Method in brief: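 Compounds are dosed as ten 3-fold dilutions from a 10 mM DMSO stock, in duplicate, and left on cells for 4 h at 37 °C, 5% CO2. Phospho-ERK1/2 is then quantified by AlphaLISA SureFire Ultra or In-Cell Western, and IC50 is derived from a 4-parameter sigmoid against log concentration.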

NCI-H358 (K-Ras G12C) = assay: CellTiter-Glo cell viability assay, NCI-H358; format: cell-based, human; details: NCI-H358, 5-day treatment, class symbols, read-out: Additional H358 Cell Viability assay data (K-Ras G12C, IC50)
Method in brief: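 Luminescent viability readout on day 5 after direct compound addition to plated cells; plates sat ~30 min at room temperature before reading. Values expressed as percent of mean DMSO signal, curves fit with a four-parameter logistic model.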

K-Ras G12C = K-Ras G12C (Homo sapiens (Human), UniProt P01116+P62937, G12C); assay: Ras-Raf (BRAF RBD) disruption / FRET / MOA assay, KRAS G12C; format: biochemical; details: KRAS G12C, Ras-Raf disruption/FRET/MOA assay
Chain of K-Ras G12C (P01116-2 other isoform, or with tags, fused parts or gaps G12C): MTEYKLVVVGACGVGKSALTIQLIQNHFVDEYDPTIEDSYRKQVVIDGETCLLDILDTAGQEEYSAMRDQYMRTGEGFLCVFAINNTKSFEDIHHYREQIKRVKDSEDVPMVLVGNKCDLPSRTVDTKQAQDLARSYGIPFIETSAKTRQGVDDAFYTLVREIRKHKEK
Chain of K-Ras G12C (P62937 whole entry, canonical isoform): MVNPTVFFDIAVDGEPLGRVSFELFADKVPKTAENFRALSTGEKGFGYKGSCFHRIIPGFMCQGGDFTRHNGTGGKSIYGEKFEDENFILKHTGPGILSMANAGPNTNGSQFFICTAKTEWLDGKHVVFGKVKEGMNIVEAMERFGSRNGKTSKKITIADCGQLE
Protocol: (§1) The purpose of this biochemical assay is to measure the ability of test compounds to facilitate ternary complex formation between a nucleotide-loaded Ras isoform and cyclophilin A; the resulting ternary complex disrupts binding to a BRAF^RBD construct, inhibiting Ras signaling through a RAF effector.
(§2) Compound is present in plate wells as a 10-point 3-fold dilution series starting at a final concentration of 30 μM. After incubation at 25° C. for 3 hours, a mixture of Anti-His Eu-W1024 and anti-GST allophycocyanin is then added to assay sample wells at final concentrations of 10 nM and 50 nM, respectively, and the reaction incubated for an additional 1.5 hours. […] Compounds that facilitate disruption of a Ras:RAF complex are identified as those eliciting a decrease in the TR-FRET ratio relative to DMSO control wells.
(§3) This protocol may also be executed substituting other Ras proteins or nucleotides.
(§4) The purpose of this biochemical assay was to measure the ability of test compounds to facilitate ternary complex formation between a nucleotide-loaded K-Ras isoform and Cyclophilin A; the resulting ternary complex disrupts binding to a BRAF^RBD construct, inhibiting K-Ras signaling through a RAF effector. Data is reported as IC50 values.
as §2, with “Compound was” for “Compound is”, “allophycocyanin was” for “allophycocyanin is”, “a K-Ras:RAF” for “a Ras:RAF”, “complex were” for “complex are”

KRAS G12S = KRAS G12S (Homo sapiens (Human), UniProt P01116+P62937, G12S); assay: Ras-Raf (BRAF RBD) disruption / FRET / MOA assay, KRAS G12S; format: biochemical; details: class symbols
Chain of KRAS G12S (P01116-2 other isoform, or with tags, fused parts or gaps G12S): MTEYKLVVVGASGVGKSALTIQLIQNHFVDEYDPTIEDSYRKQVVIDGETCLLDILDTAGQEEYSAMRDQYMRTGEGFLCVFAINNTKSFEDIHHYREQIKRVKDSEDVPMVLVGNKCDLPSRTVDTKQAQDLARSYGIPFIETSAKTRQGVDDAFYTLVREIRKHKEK
Chain of KRAS G12S (P62937 whole entry): as the sequence (P62937 whole entry, canonical isoform) above
Method in brief: (§5)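 Ternary complex formation (Ras–compound–cyclophilin A) displacing BRAF RBD, monitored by TR-FRET. Three hours at 25° C with compound (top 30 μM final), then 1.5 h with the labelled antibodies. Lower ratio than DMSO indicates disruption; IC50 reported.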

KRAS G12D = KRAS G12D (Homo sapiens (Human), UniProt P01116+P62937, G12D); assay: Ras-Raf (BRAF RBD) disruption / FRET / MOA assay, KRAS G12D; format: biochemical; details: class symbols
Chain of KRAS G12D (P01116-2 other isoform, or with tags, fused parts or gaps G12D): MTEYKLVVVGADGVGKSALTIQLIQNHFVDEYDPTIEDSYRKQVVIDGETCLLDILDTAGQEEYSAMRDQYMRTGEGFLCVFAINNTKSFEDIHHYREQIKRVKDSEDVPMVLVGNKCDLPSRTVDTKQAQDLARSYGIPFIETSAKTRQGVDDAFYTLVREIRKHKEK
Chain of KRAS G12D (P62937 whole entry): as the sequence (P62937 whole entry, canonical isoform) above
Method in brief: as §5

KRAS G12V = KRAS G12V (Homo sapiens (Human), UniProt P01116+P62937, G12V); assay: Ras-Raf (BRAF RBD) disruption / FRET / MOA assay, KRAS G12V; format: biochemical
Chain of KRAS G12V (P01116-2 other isoform, or with tags, fused parts or gaps G12V): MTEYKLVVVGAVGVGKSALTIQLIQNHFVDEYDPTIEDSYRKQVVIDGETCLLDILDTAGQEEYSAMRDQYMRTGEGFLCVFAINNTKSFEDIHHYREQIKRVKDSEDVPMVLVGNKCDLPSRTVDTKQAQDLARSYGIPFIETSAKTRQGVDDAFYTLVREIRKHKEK
Chain of KRAS G12V (P62937 whole entry): as the sequence (P62937 whole entry, canonical isoform) above
Protocol: as §1, §2, §3, §4
as §2, with “Compound was” for “Compound is”, “allophycocyanin was” for “allophycocyanin is”, “a K-Ras:RAF” for “a Ras:RAF”, “complex were” for “complex are”

KRAS WT = KRAS WT (Homo sapiens (Human), UniProt P01116+P62937); assay: Ras-Raf (BRAF RBD) disruption / FRET / MOA assay, KRAS WT; format: biochemical
Chain of KRAS WT (P01116-2 other isoform, or with tags, fused parts or gaps): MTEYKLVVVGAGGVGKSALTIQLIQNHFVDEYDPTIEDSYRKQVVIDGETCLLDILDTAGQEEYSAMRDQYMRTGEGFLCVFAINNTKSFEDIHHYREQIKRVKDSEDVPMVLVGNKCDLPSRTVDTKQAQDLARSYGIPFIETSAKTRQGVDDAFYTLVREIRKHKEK
Chain of KRAS WT (P62937 whole entry): as the sequence (P62937 whole entry, canonical isoform) above
Protocol: as §1, §2, §3, §4
as §2, with “Compound was” for “Compound is”, “allophycocyanin was” for “allophycocyanin is”, “a K-Ras:RAF” for “a Ras:RAF”, “complex were” for “complex are”

KRAS G13D = KRAS G13D (Homo sapiens (Human), UniProt P01116+P62937, G13D); assay: Ras-Raf (BRAF RBD) disruption / FRET / MOA assay, KRAS G13D; format: biochemical
Chain of KRAS G13D (P01116-2 other isoform, or with tags, fused parts or gaps G13D): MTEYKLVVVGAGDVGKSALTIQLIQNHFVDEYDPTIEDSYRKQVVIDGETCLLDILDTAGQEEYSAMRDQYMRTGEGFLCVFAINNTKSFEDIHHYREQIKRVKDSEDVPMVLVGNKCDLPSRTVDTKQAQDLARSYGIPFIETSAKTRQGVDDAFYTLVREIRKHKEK
Chain of KRAS G13D (P62937 whole entry): as the sequence (P62937 whole entry, canonical isoform) above
Protocol: as §1, §2, §3, §4
as §2, with “Compound was” for “Compound is”, “allophycocyanin was” for “allophycocyanin is”, “a K-Ras:RAF” for “a Ras:RAF”, “complex were” for “complex are”

K-Ras G13C = K-Ras G13C (Homo sapiens (Human), UniProt P01116+P62937, G13C); assay: Ras-Raf (BRAF RBD) disruption / FRET / MOA assay, KRAS G13C; format: biochemical; details: KRAS G13C, Ras-Raf disruption/FRET/MOA assay
Chain of K-Ras G13C (P01116-2 other isoform, or with tags, fused parts or gaps G13C): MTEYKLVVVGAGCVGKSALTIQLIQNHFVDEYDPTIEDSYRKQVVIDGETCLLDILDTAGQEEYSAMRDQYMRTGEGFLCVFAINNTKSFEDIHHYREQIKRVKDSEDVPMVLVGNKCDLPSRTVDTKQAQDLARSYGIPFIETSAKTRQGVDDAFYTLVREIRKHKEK
Chain of K-Ras G13C (P62937 whole entry): as the sequence (P62937 whole entry, canonical isoform) above
Protocol: as §1, §2, §3, §4
as §2, with “Compound was” for “Compound is”, “allophycocyanin was” for “allophycocyanin is”, “a K-Ras:RAF” for “a Ras:RAF”, “complex were” for “complex are”

NRAS G12C = NRAS G12C (Homo sapiens (Human), UniProt P01111+P62937, G12C); assay: Ras-Raf (BRAF RBD) disruption / FRET / MOA assay, NRAS G12C; format: biochemical
Chain of NRAS G12C (P01111 whole entry G12C): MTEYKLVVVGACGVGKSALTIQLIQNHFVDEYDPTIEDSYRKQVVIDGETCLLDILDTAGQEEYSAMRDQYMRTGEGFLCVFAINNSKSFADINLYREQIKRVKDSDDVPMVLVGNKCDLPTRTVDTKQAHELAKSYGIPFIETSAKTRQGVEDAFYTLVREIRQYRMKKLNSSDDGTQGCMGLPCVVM
Chain of NRAS G12C (P62937 whole entry): as the sequence (P62937 whole entry, canonical isoform) above
Protocol: as §1, §2
This protocol may also be executed substituting other Ras proteins or nucleotides. […]

[2] = read-out: IC50* KRAS G12C FRET data
[3] = Ras-Raf disruption/FRET/MOA assay, read-out: KRAS G12S FRET data IC50
[4] = Ras-Raf disruption/FRET/MOA assay, read-out: KRAS G12D FRET data IC50
[5] = read-out: IC50* KRAS G12V FRET data
[6] = read-out: IC50* KRAS WT FRET data
[7] = read-out: IC50* KRAS G13D FRET data
[8] = read-out: IC50* KRAS G13C FRET data
[9] = read-out: IC50* NRAS G12C FRET data

SMILES	EC50 [1] [µM]	IC50 (NCI-H358 (K-Ras G12C); Homo sapiens, NCI-H358, 120 h) [µM]	IC50 (K-Ras G12C; [2])	IC50 (KRAS G12S; [3]) [µM]	IC50 (KRAS G12D; [4]) [µM]	IC50 (KRAS G12V; [5])	IC50 (KRAS WT; [6])	IC50 (KRAS G13D; [7]) [µM]	EC50 ([1]; Homo sapiens, NCI-H358) [µM]	IC50 (K-Ras G13C; [8])	IC50 (NRAS G12C; [9])	IC50 (K-Ras G12C; IC50* KRAS G12C FRET data) [µM]	IC50 (K-Ras G13C; IC50* KRAS G13C FRET data) [µM]	IC50 (KRAS G12S; KRAS G12S FRET data IC50, Ras-Raf disruption/FRET/MOA assay) [µM]	IC50 (KRAS G12D; KRAS G12D FRET data IC50, Ras-Raf disruption/FRET/MOA assay) [µM]	IC50 (KRAS G12V; IC50* KRAS G12V FRET data) [µM]	IC50 (KRAS WT; IC50* KRAS WT FRET data) [µM]	IC50 (KRAS G13D; IC50* KRAS G13D FRET data) [µM]	IC50 (NRAS G12C; IC50* NRAS G12C FRET data) [µM]	IC50 (NCI-H358 (K-Ras G12C)) [µM]
CCn1c(-c2cnccc2COC)c2c3cc(ccc31)-c1cc(O)cc(c1)C[C@H](NC(=O)[C@H](C(C)C)N(C)C(=O)[C@H]1CCN(C(=O)C#CCN(C)C)C1)C(=O)N1CCC[C@H](N1)C(=O)OCC(C)(C)C2 (atropisomer, axis not shown) [Example A107]	< 5	< 0.01	< 0.01 µM	0.1 to 1	0.1 to 1	0.1 to 1 µM	0.1 to 1 µM	0.1 to 1												
C=CC(=O)N1CC[C@H](C(=O)N(C)[C@H](C(=O)N[C@H]2Cc3cccc(c3)-c3ccc4c(c3)c(c(-c3cnccc3COC)n4CC)CC(C)(C)COC(=O)[C@@H]3CCCN(N3)C2=O)C(C)C)C1 (atropisomer, axis not shown) [Example A119]		0.01 to 0.1	0.1 to 1 µM	1 to 10	> 10	> 10 µM		> 10	< 5	1 to 10 µM	0.1 to 1 µM									
CCn1c(-c2cccnc2[C@H](C)OC)c2c3cc(ccc31)-c1cccc(c1)C[C@H](NC(=O)[C@H](C(C)C)N(C)C(=O)[C@H]1CCN(C(=O)/C=C/CN3CC(OC)C3)C1)C(=O)N1CCC[C@H](N1)C(=O)OCC(C)(C)C2 (atropisomer, axis not shown) [Example A204]			0.01 to 0.1 µM	1 to 10	> 10	1 to 10 µM	1 to 10 µM		< 5	1 to 10 µM	0.01 to 0.1 µM									
C=CC(=O)Nc1ccc(C(=O)N(C)[C@H](C(=O)N[C@H]2Cc3cc(O)cc(c3)-c3ccc4c(c3)c(c(-c3cccnc3[C@H](C)OC)n4CC)CC(C)(C)COC(=O)[C@@H]3CCCN(N3)C2=O)C(C)C)cn1 (atropisomer, axis not shown) [Example A336]	< 5			0.1 to 1	1 to 10	0.1 to 1 µM	0.1 to 1 µM	0.1 to 1		< 0.01 µM	< 0.01 µM									
C=CC(=O)N1CC(CN2C(=O)O[C@H](C)[C@H]2C(=O)N[C@H]2Cc3cccc(c3)-c3ccc4c(c3)c(c(-c3cccnc3[C@H](C)OC)n4CC)CC(C)(C)COC(=O)[C@@H]3CCCN(N3)C2=O)C1 (atropisomer, axis not shown) [Example A460]												1 to 10	1 to 10	> 10	> 10	> 10	> 10	> 10	1 to 10	
C=CC(=O)N1CCN(C(=O)N(C)[C@H](C(=O)N[C@H]2Cc3nc(cs3)-c3ccc4c(c3)c(c(-c3cccnc3[C@H](C)OC)n4CC(F)(F)F)CC(C)(C)COC(=O)[C@@H]3CCCN(N3)C2=O)C(C)C)CC1 (atropisomer, axis not shown) [Example A465]	< 5		0.01 to 0.1 µM	0.01 to 0.1	0.01 to 0.1		0.01 to 0.1 µM	0.01 to 0.1		0.01 to 0.1 µM	0.01 to 0.1 µM									
C=CC(=O)N1CCC(C(=O)N(C)[C@H](C(=O)N[C@H]2CCC(=O)N(C)Cc3ccc4c(c3)c(c(-c3cccnc3[C@H](C)OC)n4CC)CC(C)(C)COC(=O)[C@@H]3CCCN(N3)C2=O)C(C)C)C1 (atropisomer, axis not shown) [Example A500]		> 1		> 10	> 10	> 10 µM	> 10 µM			> 10 µM	> 10 µM									
C=CC(=O)N1CC[C@H](C(=O)N(C)[C@H](C(=O)N[C@H]2Cc3cccc(c3)-c3ccc4c(c3)c(c(-c3cc(C5=CCN(C)CC5)cnc3[C@H](C)OC)n4CC)CC(C)(C)COC(=O)[C@@H]3CCCN(N3)C2=O)C(C)C)C1 (atropisomer, axis not shown) [Example A514]			1 to 10 µM	> 10	> 10	> 10 µM	> 10 µM	> 10		1 to 10 µM	1 to 10 µM									
C=CC(=O)N1CC[C@H](C(=O)N(C)[C@H](C(=O)NC2C[C@H]3CN(CCCO3)c3ccc4c(c3)c(c(-c3cccnc3[C@H](C)OC)n4CC)CC(C)(C)COC(=O)[C@@H]3CCCN(N3)C2=O)C(C)C)C1 (single isomer, unassigned) [Example A405]		> 1		> 10	> 10	> 10 µM	> 10 µM	> 10		> 10 µM	> 10 µM									
CCn1c(-c2cccnc2COC)c2c3cc(ccc31)-c1cc(O)cc(c1)C[C@H](NC(=O)[C@H](C(C)C)N(C)C(=O)[C@H]1CCN(C(=O)C#CCN3CCOCC3)C1)C(=O)N1CCC[C@H](N1)C(=O)OCC(C)(C)C2 [Example A095]				0.1 to 1	> 10	0.1 to 1 µM	1 to 10 µM	1 to 10		0.1 to 1 µM										
CCn1c(-c2cccnc2COC)c2c3cc(ccc31)-c1cc(C)cc(c1)C[C@H](NC(=O)[C@H](C(C)C)N(C)C(=O)[C@H]1CCN(C(=O)C#CCN(C)C)C1)C(=O)N1CCC[C@H](N1)C(=O)OCC(C)(C)C2 [Example A157]	< 5		< 0.01 µM	> 10	1 to 10					0.1 to 1 µM	< 0.01 µM									
CCn1c(-c2cccnc2[C@H](C)OC)c2c3cc(ccc31)-c1cc(O)cc(c1)C[C@H](NC(=O)[C@H](C(C)C)N(C)C(=O)[C@H]1CCN(C(=O)C#CC3(N(C)C)COC3)C1)C(=O)N1CCC[C@H](N1)C(=O)OCC(C)(C)C2 [Example A246]		< 0.01		0.1 to 1	1 to 10	0.1 to 1 µM	0.1 to 1 µM	0.1 to 1	< 5	0.01 to 0.1 µM										
C=CC(=O)Nc1cnc(C(=O)N(C)[C@H](C(=O)N[C@H]2Cc3cc(O)cc(c3)-c3ccc4c(c3)c(c(-c3cccnc3[C@H](C)OC)n4CC)CC(C)(C)COC(=O)[C@@H]3CCCN(N3)C2=O)C(C)C)n1C [Example A334]			< 0.01 µM and 0.01 to 0.1 µM	0.01 to 0.1	0.1 to 1	0.1 to 1 µM and 0.01 to 0.1 µM	0.1 to 1 µM and 0.01 to 0.1 µM		< 5	0.01 to 0.1 µM and < 0.01 µM	< 0.01 µM and 0.01 to 0.1 µM									< 0.01
CCn1c(-c2cccnc2[C@H](C)OC)c2c3cc(ccc31)-c1cc(O)cc(c1)C[C@H](NC(=O)[C@H](C(C)C)N(C)C(=O)[C@H]1CCN(C(=O)C#CC3(N(C)C)COC3)C1)C(=O)N1CCC[C@H](N1)C(=O)OCC(C)(C)C2 [Example A337]	< 5		< 0.01 µM	0.1 to 1	1 to 10						< 0.01 µM									< 0.01
